# Results as given in article PMC6689897, “Drugging an undruggable pocket on KRAS” (Proceedings of the National Academy of Sciences of the …, 2019).
# Biological target: GCP-KRASG12D (Homo sapiens, UniProt P01116, G12D)
# Test: HSQC NMR KD of fragment hits
# Assay type: binding
# Conditions: fragment screen hits, active form of KRAS
# Excerpt: Next, we attempted to identify compounds that bind to GTP-KRAS via fragment-based screening ([21]–[23]). A library of 1,800 fragments was screened using both saturation transfer difference NMR ([24], [25]) and microscale thermophoresis ([26]) using KRAS^G12V-phosphomethylphosphonic acid guanylate ester (GCP-KRAS^G12V), from which 16 fragments were found and subsequently validated (hit rate 0.9%) by the observation of cross-peak shifts in the 2D ^1H/^15N heteronuclear single-quantum correlation (HSQC) NMR spectra of GCP-KRAS^G12D. We also screened a library of 13,800 compounds using uniformly ^15N-labeled GNP-KRAS by HSQC NMR experiments. Representatives of some of the fragments which bound the active form of KRAS from the 2 screens are depicted in Fig. 1A. […]
# 98 Measurement of dissociation constants KD for the compounds synthesized. NMR
# 99 was initially the only method that could provide K Ds for the weakly binding molecules to
# 100 support compound optimization. 1H/15N SoFast HMQC experiments(3) were recorded in
# 101 3mm NMR tubes (170µL filling) at a protein concentration of 70-100µM. Spectra were
# 102 recorded on a Avance III 700MHz spectrometer equipped with a cryogenically cooled
# 103 5mm TCI probe and 48 scans, 128 f1 increments and 2k data points in f2. Total
# 104 acquisition time was 22 minutes. 4 – 6 titration points were performed w ith individual
# 105 samples for each titration point made from 50mM DMSO -d6 stock solutions. Total
# 106 DMSO-d6 concentration was kept constant by backfilling every sample to a total of 4%
# 107 DMSO. KDs were calculated from the differences in chemical shift induced by t he small
# 108 molecules upon interacting with the protein. Average chemical shifts from the 1H and 15N
# 109 dimension were calculated according to the following equation:
# 110 ∆δobs = √[δH2 + (α ∙δN)2] with α set to 0.14
# 111 The Δδobs values at the respective ligand concentrations and the total concentration
# 112 of protein allow a fit to the KD value of the ligand as long as it is binding under fast
# 113 exchange conditions as was the case for most of the compounds tested.(4) Usually Δδobs
# 115 following equation was used to determine the individual KDs: […]
# 121 HEPES, 150 mM NaCl, 3% DMSO, pH 7.5. All measurements were carried out at 25°C.
# 122 Titrations were performed in inverse mode. The cell was loaded with compound solutions
# 123 in the range of 10 to 100 µM. All injections were performed using an initial injection of
# 124 0.5 μL followed by 19 injections of 2 μL of protein in the range of 130-500 µM. The data
# 125 were analyzed with the MicroCal PEAQ-ITC analysis software package. The first data
# GCP-KRASG12D, sequence (P01116 1-169 isoform P01116-2 G12D): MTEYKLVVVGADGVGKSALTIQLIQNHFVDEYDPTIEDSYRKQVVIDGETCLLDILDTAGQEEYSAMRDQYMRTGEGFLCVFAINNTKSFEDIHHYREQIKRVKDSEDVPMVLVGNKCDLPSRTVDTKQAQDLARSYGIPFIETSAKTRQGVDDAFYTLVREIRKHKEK
row,Structure (SMILES),Kd [µM]
1,Nc1nc2ccccc2n1Cc1ccccc1 [Compound 4],> 2000
2,Nc1ccc2nc(Cc3c[nH]c4ccccc34)[nH]c2c1 [Compound 7],1300

# Now from value to compound:
row,Kd [µM],Structure (SMILES)
1,> 2000,Clc1ccc2[nH]c3c(c2c1)CNCC3 [Compound 2]
2,> 2000,O=C(c1c[nH]c2ccccc12)N1CCNCC1 [Compound 3]
3,> 5000,c1ccc2c(CN3CCOCC3)c[nH]c2c1 [Compound 6]
